Measurements published in patent US20260125375A1 (Pfizer Inc., priority 2022, published 2026).

Columns and labels:
C-CBL (residues 46-435) = target: T1, C-CBL (residues 46-435) (Homo sapiens, UniProt P22681); test: Ligand Displacement Assay (LDA), HTRF competitive binding against BODIPY-labeled fluorescent tracer, C-CBL; conditions: geometric mean of the number of tests, read-out: C-CBL Ki (nM) GMean
T1 construct: Purified CBL-B (residues 36-427) and C-CBL (residues 46-435) proteins from baculovirus-infected insect cells; made in house; host or cells: baculovirus-infected insect cells
T1 sequence (P22681 46-435): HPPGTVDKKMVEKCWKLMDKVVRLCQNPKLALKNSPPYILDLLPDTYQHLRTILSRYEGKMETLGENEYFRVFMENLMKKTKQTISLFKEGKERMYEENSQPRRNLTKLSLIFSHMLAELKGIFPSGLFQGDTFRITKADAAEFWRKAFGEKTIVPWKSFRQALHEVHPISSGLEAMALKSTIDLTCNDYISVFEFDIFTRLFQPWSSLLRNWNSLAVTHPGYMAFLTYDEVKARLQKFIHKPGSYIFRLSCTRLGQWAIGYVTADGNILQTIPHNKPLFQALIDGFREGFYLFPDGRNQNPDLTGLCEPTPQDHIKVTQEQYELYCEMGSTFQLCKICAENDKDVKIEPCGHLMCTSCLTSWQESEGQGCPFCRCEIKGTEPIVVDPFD
In short: (§1)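 Terbium-streptavidin donor on BirA-biotinylated, AviTagged protein from baculovirus-infected insect cells; BODIPY tracer as acceptor. Compound titrations were three-fold and duplicated, […] with 2% DMSO final.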

CBL-B (residues 36-427) = target: T2, CBL-B (residues 36-427) (Homo sapiens, UniProt Q13191); test: Ligand Displacement Assay (LDA), HTRF competitive binding against BODIPY-labeled fluorescent tracer, CBL-B; conditions: geometric mean of the number of tests, read-out: CBL-B Ki (nM) GMean
T2 construct: Purified CBL-B (residues 36-427) and C-CBL (residues 46-435) proteins from baculovirus-infected insect cells; made in house; host or cells: baculovirus-infected insect cells
In short: as §1

WT CBL-B (36-427) = target: T3, WT CBL-B (36-427) (Homo sapiens, UniProt Q13191); test: Surface Plasmon Resonance (SPR) assay, binding affinity and kinetics, CBL-B; conditions: SPR at 10° C., biotinylated WT CBL-B (36-427) on streptavidin chip; geometric mean; read-out: CBL-B SPR Kd (nM) GMean
T3 construct: N-terminal biotinylated WT CBL-B (36-427) and C-CBL (46-435) were captured on a streptavidin (SA) coated sensor chip
In short: (§2)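 SPR kinetics at 10° C, run either single-cycle (0.001–1 μM, 3-fold, 6 points, 120 s on, >5400 s off) or multi-cycle (10 points, 2-fold, top 10 or 100 μM, 90 s on). Proteins were N-biotinylated CBL-B (36-427) and C-CBL (46-435) on SA surfaces, in pH 7.2 HEPES, 2% DMSO.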

C-CBL (46-435) = target: T4, C-CBL (46-435) (Homo sapiens, UniProt P22681); test: Surface Plasmon Resonance (SPR) assay, binding affinity and kinetics, C-CBL; conditions: SPR at 10° C., biotinylated C-CBL (46-435) on streptavidin chip; geometric mean; read-out: C-CBL SPR Kd (nM) GMean
T4 construct: N-terminal biotinylated WT CBL-B (36-427) and C-CBL (46-435) were captured on a streptavidin (SA) coated sensor chip
T4 sequence (P22681 46-435): T1 sequence (P22681 46-435)
In short: as §2

SMILES | Ki (C-CBL (residues 46-435)) [nM] | Ki (CBL-B (residues 36-427)) [nM] | Kd (WT CBL-B (36-427)) [nM] | Kd (C-CBL (46-435)) [nM]
CC(N)c1nc(C(F)(F)F)cc2c(-c3cccc(C4(Cc5nncn5C)COC4)c3)n[nH]c12 (single isomer, unassigned) [Example K17, (1ξ)-1-[3-(3-{3-[(4-methyl-4H-1,2,4-triazol-3-yl)methyl]oxetan-3-yl}phenyl)-5-(trifluoromethyl)-1H-pyrazolo[3,4-c]pyridin-7-yl]ethan-1-amine] | 145 | 44.6 | 27.3 | 256
C[C@@H]1CN([C@H](C)c2nc(C(F)(F)F)cc3c(-c4cccc(C5(Cc6nncn6C)COC5)c4)n[nH]c23)CCO1 (single isomer, unassigned) [Example D50] | 30.7 | 9 | 2.6 | 30.1
CNCc1nc(C(F)(F)F)cc2c(-c3cccc(C4(Cc5nncn5C)COC4)c3)n[nH]c12 [Example C52, N-methyl-1-[3-(3-{3-[(4-methyl-4H-1,2,4-triazol-3-yl)methyl]oxetan-3-yl}phenyl)-5-(trifluoromethyl)-1H-pyrazolo[3,4-c]pyridin-7-yl]methanamine] | 134 | 32.9 | 9.3 | 124
C[C@H](c1nc(C(F)(F)F)cc2c(-c3cccc([C@H](c4nncn4C)C4CCC4)c3)n[nH]c12)N1CCNC(=O)C1 (single isomer, unassigned) [Example D89] | 290 | 20.9 | 11 | 307
CNCc1nc(C(F)(F)F)cc2c(-c3cccc([C@H](c4nncn4C)C4CCC4)c3)n[nH]c12 [Example C103, 1-[3-{3-[(R)-cyclobutyl(4-methyl-4H-1,2,4-triazol-3-yl)methyl]phenyl}-5-(trifluoromethyl)-1H-pyrazolo[3,4-c]pyridin-7-yl]-N-methylmethanamine] | 389 | 46 | 20.5 | 349
CC(CN)c1nc(C(F)(F)F)cc2c(-c3cccc([C@H](c4nncn4C)C4CCC4)c3)n[nH]c12 (single isomer, unassigned) [Example K14] | 195 | 24.8 | 20.6 | 244
Cn1cnnc1[C@@H](c1cccc(-c2n[nH]c3c(CN4CC(F)C4)nc(C(F)(F)F)cc23)c1)C1CCC1 [Example C106, 3-{3-[(R)-cyclobutyl(4-methyl-4H-1,2,4-triazol-3-yl)methyl]phenyl}-7-[(3-fluoroazetidin-1-yl)methyl]-5-(trifluoromethyl)-1H-pyrazolo[3,4-c]pyridine] | 475 | 41.6 | 5.9 | 265
CC(C)NC(C)c1nc(C(F)(F)F)cc2c(-c3cccc(C4(Cc5nncn5C)COC4)c3)n[nH]c12 (single isomer, unassigned) [Example C80, N-{(1ξ)-1-[3-(3-{3-[(4-methyl-4H-1,2,4-triazol-3-yl)methyl]oxetan-3-yl}phenyl)-5-(trifluoromethyl)-1H-pyrazolo[3,4-c]pyridin-7-yl]ethyl}propan-2-amine] | 71.5 | 10.1 | 1.7 | 68.5
CC(NC1CC(F)(F)C1)c1nc(C(F)(F)F)cc2c(-c3cccc(C4(Cc5nncn5C)COC4)c3)n[nH]c12 (single isomer, unassigned) [Example C94, 3,3-difluoro-N-{(1ξ)-1-[3-(3-{3-[(4-methyl-4H-1,2,4-triazol-3-yl)methyl]oxetan-3-yl}phenyl)-5-(trifluoromethyl)-1H-pyrazolo[3,4-c]pyridin-7-yl]ethyl}cyclobutan-1-amine] | 14.9 | 2.8 | 2.5 | 15
CC(C)NCc1nc(C(F)(F)F)cc2c(-c3cccc(C4(Cc5nncn5C)COC4)c3)n[nH]c12 [Example C53, N-{[3-(3-{3-[(4-methyl-4H-1,2,4-triazol-3-yl)methyl]oxetan-3-yl}phenyl)-5-(trifluoromethyl)-1H-pyrazolo[3,4-c]pyridin-7-yl]methyl}propan-2-amine] | 312 | 66.6 | 61.8 | 747
Cn1cnnc1CC1(c2cccc(-c3n[nH]c4c(CN5C[C@@H](F)[C@@H](F)C5)nc(C(F)(F)F)cc34)c2)COC1 [Example C67, 7-{[(3R,4S)-3,4-difluoropyrrolidin-1-yl]methyl}-3-(3-{3-[(4-methyl-4H-1,2,4-triazol-3-yl)methyl]oxetan-3-yl}phenyl)-5-(trifluoromethyl)-1H-pyrazolo[3,4-c]pyridine] | 72.1 | 12.6 | 4.4 | 51
Cn1cnnc1CC1(c2cccc(-c3n[nH]c4c(CCN)nc(C(F)(F)F)cc34)c2)COC1 [Example K5, 2-[3-(3-{3-[(4-methyl-4H-1,2,4-triazol-3-yl)methyl]oxetan-3-yl}phenyl)-5-(trifluoromethyl)-1H-pyrazolo[3,4-c]pyridin-7-yl]ethan-1-amine] | 199 | 55.3 | 23.6 | 221
C[C@H](c1nc(C(F)(F)F)cc2c(-c3cccc(C4(Cc5nncn5C)COC4)c3)n[nH]c12)N1CCC1 (single isomer, unassigned) [Example D42] | 163 | 35.3 | 9.4 | 59.8
CN[C@@H](C)c1nc(C(F)(F)F)cc2c(-c3cccc(C4(Cc5nncn5C)COC4)c3)n[nH]c12 (single isomer, unassigned) [Example D37] | 64.5 | 22.2 | 7.9 | 68.6
Cn1cnnc1[C@@H](c1cccc(-c2n[nH]c3c(CN4C[C@@H](F)[C@@H](F)C4)nc(C(F)(F)F)cc23)c1)C1CCC1 [Example C107, 3-{3-[(R)-cyclobutyl(4-methyl-4H-1,2,4-triazol-3-yl)methyl]phenyl}-7-{[(3R,4S)-3,4-difluoropyrrolidin-1-yl]methyl}-5-(trifluoromethyl)-1H-pyrazolo[3,4-c]pyridine] | 363 | 33.9 | 3.7 | 158
Cc1nccc2c(-c3cccc([C@H](c4nncn4C)C4CCC4)c3)n[nH]c12 [Example A7, 3-{3-[(R)-cyclobutyl(4-methyl-4H-1,2,4-triazol-3-yl)methyl]phenyl}-7-methyl-1H-pyrazolo[3,4-c]pyridine] | 767 | 83.8 | 31 | 1300
Cn1cnnc1[C@@H](c1cccc(-c2n[nH]c3c(CN4C[C@@H](F)[C@H](F)C4)nc(C(F)(F)F)cc23)c1)C1CCC1 [Example C111, 3-{3-[(R)-cyclobutyl(4-methyl-4H-1,2,4-triazol-3-yl)methyl]phenyl}-7-{[(3R,4R)-3,4-difluoropyrrolidin-1-yl]methyl}-5-(trifluoromethyl)-1H-pyrazolo[3,4-c]pyridine] | 313 | 26.9 | 3.3 | 282
Cn1cnnc1[C@@H](c1cccc(-c2n[nH]c3c(CN4CC[C@H](O)C4)nc(C(F)(F)F)cc23)c1)C1CCC1 [Example C77, (3S)-1-{[3-{3-[(R)-cyclobutyl(4-methyl-4H-1,2,4-triazol-3-yl)methyl]phenyl}-5-(trifluoromethyl)-1H-pyrazolo[3,4-c]pyridin-7-yl]methyl}pyrrolidin-3-ol] | 29.5 | 2.4 | 2.5 | 54.9
Cn1cnnc1[C@@H](c1cccc(-c2n[nH]c3c(CN[C@H]4C[C@H](O)C4)nc(C(F)(F)F)cc23)c1)C1CCC1 [Example C119, (1r,3r)-3-({[3-{3-[(R)-cyclobutyl(4-methyl-4H-1,2,4-triazol-3-yl)methyl]phenyl}-5-(trifluoromethyl)-1H-pyrazolo[3,4-c]pyridin-7-yl]methyl}amino)cyclobutan-1-ol] | 220 | 28.7 | 21.9 | 254
CC(NC1CC2(COC2)C1)c1nc(C(F)(F)F)cc2c(-c3cccc([C@H](c4nncn4C)C4CCC4)c3)n[nH]c12 (single isomer, unassigned) [Example C98] | 109 | 26.9 | 11.3 | 205
